Data on two molecules can be found in BindingDB's records for patent US11897867 (Bayer Aktiengesellschaft, 2024).

The term IC50 denotes the midpoint of a concentration-inhibition curve. Low readings indicate greater potency, high ones weaker potency.

For experiment [1], the target named is cGMP-inhibited 3',5'-cyclic phosphodiesterase 3B (Homo sapiens, UniProt Q13370). The experiment in a line: PDE3B Enzyme Inhibition. On the procedure: The commercially available 3H-cAMP Scintillation Proximity Assay (SPA, Perkin Elmer) system was used for enzyme inhibition studies. For the determination of the in vitro effect of test substances on the PDE3B reactions 2 μl of the respective test compound solution in DMSO (serial dilutions) were placed in wells of microtiter plates (Isoplate-96/200W; Perkin Elmer). 50 μl of a dilution of PDE3B cell extract from Sf9 cells overexpressing human full length PDE3B (SB Drug Discovery, UK) in buffer A (50 mM Tris/HCl pH 7.5, 8.3 mM MgCl2, 1.7 mM EDTA, 0.2% BSA) was added. The dilution of the PDE3B cell extract was chosen such that the reaction kinetics was linear and less than 70% of the substrate was consumed (typical dilution 1:6000). The reaction was started by addition of 50 μl (0.025 μCi) of 1:2000 in buffer A w/o BSA diluted substrate [8-3H] adenosine 3′,5′-cyclic phosphate (1 μCi/μl; Perkin Elmer). After incubation at room temperature for 60 min, the reaction was stopped by addition of 25 μl of a suspension containing 18 mg/ml yttrium scintillation proximity beads (Perkin Elmer) in water. The microtiter plates were sealed and measured in a Microbeta scintillation counter (PerkinElmer Wallac). IC50 values were determined from sigmoidal curves by plotting percentage PDE3B activity vs log compound concentration.
cGMP-inhibited 3',5'-cyclic phosphodiesterase 3B, sequence (Q13370 whole entry): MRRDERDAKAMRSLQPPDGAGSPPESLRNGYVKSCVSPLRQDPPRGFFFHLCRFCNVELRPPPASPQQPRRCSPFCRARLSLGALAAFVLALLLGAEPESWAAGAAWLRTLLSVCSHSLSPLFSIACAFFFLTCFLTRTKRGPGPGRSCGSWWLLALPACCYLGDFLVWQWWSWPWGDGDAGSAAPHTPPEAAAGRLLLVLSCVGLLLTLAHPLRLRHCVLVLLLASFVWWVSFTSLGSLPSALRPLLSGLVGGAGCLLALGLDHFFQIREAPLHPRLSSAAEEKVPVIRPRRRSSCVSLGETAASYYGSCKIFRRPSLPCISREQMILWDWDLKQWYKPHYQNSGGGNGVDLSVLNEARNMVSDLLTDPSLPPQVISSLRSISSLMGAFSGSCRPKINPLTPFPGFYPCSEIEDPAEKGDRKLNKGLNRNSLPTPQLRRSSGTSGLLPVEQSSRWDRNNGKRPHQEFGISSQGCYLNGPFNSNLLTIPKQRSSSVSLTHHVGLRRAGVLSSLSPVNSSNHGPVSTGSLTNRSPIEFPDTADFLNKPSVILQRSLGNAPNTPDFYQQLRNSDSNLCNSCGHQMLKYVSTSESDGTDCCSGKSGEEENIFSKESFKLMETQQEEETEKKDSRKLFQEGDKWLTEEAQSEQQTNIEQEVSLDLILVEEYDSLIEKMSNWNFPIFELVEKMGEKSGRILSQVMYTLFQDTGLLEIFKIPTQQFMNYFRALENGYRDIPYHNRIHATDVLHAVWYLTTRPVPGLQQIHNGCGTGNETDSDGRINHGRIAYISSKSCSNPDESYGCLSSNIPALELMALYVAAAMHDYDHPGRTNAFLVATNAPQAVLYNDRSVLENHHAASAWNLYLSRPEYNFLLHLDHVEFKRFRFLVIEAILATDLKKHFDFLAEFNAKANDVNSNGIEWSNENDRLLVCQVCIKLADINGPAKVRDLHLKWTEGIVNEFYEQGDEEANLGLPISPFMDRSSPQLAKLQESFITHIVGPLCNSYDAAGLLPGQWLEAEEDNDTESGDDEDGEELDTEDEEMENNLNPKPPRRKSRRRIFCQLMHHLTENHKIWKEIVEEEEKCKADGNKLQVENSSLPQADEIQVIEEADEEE

Experiment [2] addresses cGMP-inhibited 3',5'-cyclic phosphodiesterase 3A (Homo sapiens, UniProt Q14432). The experiment can be described thus: PDE3A Enzyme Inhibition. The protocol:
The commercially available 3H-cAMP Scintillation Proximity Assay (SPA, Perkin Elmer) system was used for enzyme inhibition studies. For the determination of the in vitro effect of test substances on the PDE3A reactions 2 μl of the respective test compound solution in DMSO (serial dilutions) were is placed in wells of microtiter plates (Isoplate-96/200W; Perkin Elmer). 50 μl of a dilution of PDE3A cell extract from Sf9 cells overexpressing human full length PDE3A (SB Drug Discovery, UK) in buffer A (50 mM Tris/HCl pH 7.5, 8.3 mM MgCl2, 1.7 mM EDTA, 0.2% BSA) was added. The dilution of the PDE3A cell extract was chosen such that the reaction kinetics was linear and less than 70% of the substrate was consumed (typical dilution 1:5000). The reaction was started by addition of 50 μl (0.025 μCi) of 1:2000 in buffer A w/o BSA diluted substrate [8-3H] adenosine 3′,5′-cyclic phosphate (1 μCi/μl; Perkin Elmer). After incubation at room temperature for 60 min, the reaction was stopped by addition of 25 μl of a suspension containing 18 mg/ml yttrium scintillation proximity beads (Perkin Elmer) in water. The microtiter plates were sealed and measured in a Microbeta scintillation counter (PerkinElmer Wallac). IC50 values were determined from sigmoidal curves by plotting percentage PDE3A activity vs log compound concentration.

Structures are written as SMILES.

cGMP-inhibited 3',5'-cyclic phosphodiesterase 3A, sequence (Q14432 whole entry): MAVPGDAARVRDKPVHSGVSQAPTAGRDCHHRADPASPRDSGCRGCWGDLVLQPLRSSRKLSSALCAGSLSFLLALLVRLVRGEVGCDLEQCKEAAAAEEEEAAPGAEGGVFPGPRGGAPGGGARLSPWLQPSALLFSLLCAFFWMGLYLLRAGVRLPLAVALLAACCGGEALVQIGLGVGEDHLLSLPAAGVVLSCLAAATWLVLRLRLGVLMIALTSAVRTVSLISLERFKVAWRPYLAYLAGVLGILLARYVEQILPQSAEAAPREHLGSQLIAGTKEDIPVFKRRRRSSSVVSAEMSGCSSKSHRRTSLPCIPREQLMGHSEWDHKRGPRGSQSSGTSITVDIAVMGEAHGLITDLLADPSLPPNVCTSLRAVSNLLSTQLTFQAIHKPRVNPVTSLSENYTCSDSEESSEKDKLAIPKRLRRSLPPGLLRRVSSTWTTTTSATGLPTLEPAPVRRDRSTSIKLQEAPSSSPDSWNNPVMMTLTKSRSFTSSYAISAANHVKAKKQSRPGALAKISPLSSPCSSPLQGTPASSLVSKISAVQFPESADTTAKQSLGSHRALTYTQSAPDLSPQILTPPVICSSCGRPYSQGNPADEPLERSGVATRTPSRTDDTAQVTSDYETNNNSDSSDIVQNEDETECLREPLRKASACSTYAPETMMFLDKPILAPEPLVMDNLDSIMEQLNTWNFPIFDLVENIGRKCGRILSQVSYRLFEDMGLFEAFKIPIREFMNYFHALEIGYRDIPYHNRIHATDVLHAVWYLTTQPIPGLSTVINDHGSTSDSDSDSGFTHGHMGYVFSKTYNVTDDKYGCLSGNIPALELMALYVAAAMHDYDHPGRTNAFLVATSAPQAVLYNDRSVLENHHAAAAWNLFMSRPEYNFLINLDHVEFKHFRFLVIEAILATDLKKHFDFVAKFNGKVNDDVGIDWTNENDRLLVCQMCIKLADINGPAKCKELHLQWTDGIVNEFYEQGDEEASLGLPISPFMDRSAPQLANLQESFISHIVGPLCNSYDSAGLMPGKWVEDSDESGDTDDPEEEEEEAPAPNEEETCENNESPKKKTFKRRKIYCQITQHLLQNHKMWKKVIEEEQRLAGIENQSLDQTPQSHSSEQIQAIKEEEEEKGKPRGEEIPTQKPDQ

Take `O=C1CCC(c2ccc(-c3ccccc3C(F)(F)F)c(F)c2)=NN1` [US11897867, Example 61]: the IC50 was 110 nM in experiment [1] and 440 nM in experiment [2]. Molecule `O=C1CCC(c2ccc(N3CCOCC3)cc2)=NN1` [US11897867, Example 123] registered an IC50 in experiment [2] greater than 1000 nM.
